Laboratory results as given in patent US20250059198A1, “BRM DEGRADING COMPOUNDS AND ASSOCIATED METHODS OF USE” (Arvinas Operations, Inc., priority 2021, published 2025).

Biological target: T1, BRM (Homo sapiens, UniProt P51531)
T1 construct: Western Blot Screen of BRM Degradation in SW1573 Cells; endogenous in cells; host or cells: SW1573 cells
Assay: BRM degradation (Dmax and DC50) in SW1573 cells, Western blot screen / In-Cell Western screen
Assay type: cell-based
Conditions: overnight (18-20 hours) treatment; for Dmax: read-out: Dmax (%)** (% degraded)
Method in brief: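 SW1573 cells were treated with compound for 18–20 h (final 0.1% DMSO). BRM was quantified either by Western blot of RIPA lysates or by fixed-cell In-Cell Western (LI-COR, 800/680 nm), each normalised to alpha-tubulin, giving Dmax and DC50.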

T1 sequence (P51531 whole entry): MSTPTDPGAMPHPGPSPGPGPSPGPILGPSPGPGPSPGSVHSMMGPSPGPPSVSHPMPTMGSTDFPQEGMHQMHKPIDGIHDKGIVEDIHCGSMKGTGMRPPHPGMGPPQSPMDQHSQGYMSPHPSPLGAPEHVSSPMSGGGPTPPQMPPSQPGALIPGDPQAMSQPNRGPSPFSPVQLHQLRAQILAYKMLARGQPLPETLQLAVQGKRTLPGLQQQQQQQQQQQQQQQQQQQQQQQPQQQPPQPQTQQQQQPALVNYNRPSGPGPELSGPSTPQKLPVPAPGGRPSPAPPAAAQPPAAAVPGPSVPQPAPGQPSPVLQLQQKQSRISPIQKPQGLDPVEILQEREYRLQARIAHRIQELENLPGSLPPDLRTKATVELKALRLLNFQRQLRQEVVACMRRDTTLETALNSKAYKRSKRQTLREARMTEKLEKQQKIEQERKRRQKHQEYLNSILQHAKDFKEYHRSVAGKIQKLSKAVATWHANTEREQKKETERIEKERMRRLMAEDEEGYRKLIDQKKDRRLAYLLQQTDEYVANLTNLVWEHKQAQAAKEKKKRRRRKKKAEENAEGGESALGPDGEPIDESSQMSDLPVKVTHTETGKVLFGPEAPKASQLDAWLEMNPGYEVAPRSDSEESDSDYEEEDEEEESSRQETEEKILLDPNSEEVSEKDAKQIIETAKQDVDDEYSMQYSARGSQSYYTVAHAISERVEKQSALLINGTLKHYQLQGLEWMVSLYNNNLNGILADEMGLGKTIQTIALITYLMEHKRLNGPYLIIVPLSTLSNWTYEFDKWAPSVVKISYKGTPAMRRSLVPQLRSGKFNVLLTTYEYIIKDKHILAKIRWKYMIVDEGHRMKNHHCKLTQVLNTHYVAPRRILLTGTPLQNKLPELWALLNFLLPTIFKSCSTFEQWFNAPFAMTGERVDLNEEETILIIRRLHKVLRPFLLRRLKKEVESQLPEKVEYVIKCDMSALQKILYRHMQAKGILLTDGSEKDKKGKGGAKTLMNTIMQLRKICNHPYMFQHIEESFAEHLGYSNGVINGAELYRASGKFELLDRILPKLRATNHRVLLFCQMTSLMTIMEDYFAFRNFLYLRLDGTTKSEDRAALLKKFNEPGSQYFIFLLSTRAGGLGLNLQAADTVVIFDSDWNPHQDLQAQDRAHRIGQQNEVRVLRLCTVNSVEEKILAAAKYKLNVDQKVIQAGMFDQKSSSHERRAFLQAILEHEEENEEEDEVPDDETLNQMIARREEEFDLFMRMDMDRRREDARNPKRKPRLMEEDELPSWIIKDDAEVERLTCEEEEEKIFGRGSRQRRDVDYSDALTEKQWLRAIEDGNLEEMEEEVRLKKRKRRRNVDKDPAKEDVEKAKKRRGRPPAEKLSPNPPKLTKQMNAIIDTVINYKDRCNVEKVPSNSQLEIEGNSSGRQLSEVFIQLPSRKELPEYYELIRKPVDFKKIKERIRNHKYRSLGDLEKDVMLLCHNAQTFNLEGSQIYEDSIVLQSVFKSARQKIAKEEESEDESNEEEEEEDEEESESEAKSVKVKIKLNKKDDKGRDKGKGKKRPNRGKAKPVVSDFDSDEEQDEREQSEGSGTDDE

SMILES | DC50 | Dmax
Cc1ncsc1-c1ccc([C@H](C)NC(=O)[C@@H]2C[C@@H](O)CN2C(=O)[C@@H](c2cc(N3CCC(CN4CCC(O[C@H]5C[C@H](N6CCC([C@@H](C)c7cnn(-c8cc(-c9ccccc9O)nnc8N)c7)CC6)C5)CC4)CC3)no2)C(C)C)cc1 [Compound 74, (2S,4R)-4-hydroxy-N-[(1S)-1-[4-(4-methyl-1,3-thiazol-5-yl)phenyl]ethyl]-1-[(2R)-3-methyl-2-{3-[4-({4-[(1r,3r)-3-{4-[(1R)-1-{1-[3-amino-6-(2-hydroxyphenyl)pyridazin-4-yl]-1H-pyrazol-4-yl}ethyl]piperidin-- yl}cyclobutoxy]piperidin-1-yl}methyl)piperidin-1-yl]-1,2-oxazol-5-yl}butanoyl]pyrrolidine-2-carboxamide] | < 2.5 nM | > 75%
CC(C)[C@@H](C(=O)N1C[C@H](O)C[C@H]1C(=O)N[C@@H](C)c1ccc(-c2ccnn2C)cc1)c1cc(N2CCC(CN3CCC(O[C@H]4C[C@H](Oc5cc(/C=C(\F)c6cc(-c7ccccc7O)nnc6N)ccn5)C4)CC3)CC2)no1 [Compound 51, (2S,4R)-4-hydroxy-N-[(1S)-1-[4-(1-methyl-1H-pyrazol-5-yl)phenyl]ethyl]-1-[(2R)-3-methyl-2-{3-[4-({4-[(1r,3r)-3-[(4-{2-[3-amino-6-(2-hydroxyphenyl)pyridazin-4-yl]-2-fluoroethenyl}pyridin-2-yl)oxy]cyclobutoxy]piperidin-1-yl}methyl)piperidin-1-yl]-1,2-oxazol-5-yl}butanoyl]pyrrolidine-2-carboxamide] | < 2.5 nM | > 75%
CC(C)[C@@H](C(=O)N1C[C@H](O)C[C@H]1C(=O)N[C@@H](C)c1ccc(C#N)cc1)c1cc(OCCN2CCN(CCOc3cc(N4C5CCC4CN(c4cc(-c6ccccc6O)nnc4N)C5)ccn3)CC2)no1 [Compound 66, (2S,4R)-1-[(2R)-2-{3-[2-(4-{2-[(4-{3-[3-amino-6-(2-hydroxyphenyl)pyridazin-4-yl]-3,8-diazabicyclo[3.2.1]octan-8-yl}pyridin-2-yl)oxy]ethyl}piperazin-1-yl)ethoxy]-1,2-oxazol-5-yl}-3-methylbutanoyl]-N-[(1S)-1-(4-cyanophenyl)ethyl]-4-hydroxypyrrolidine-2-carboxamide] | 2.5 to 10 nM | > 75%
Cc1ncsc1-c1ccc([C@H](CC(=O)N2CCC(CN3CCC(O[C@H]4C[C@H](Oc5cc(N6C7CCC6CN(c6cc(-c8ccccc8O)nnc6N)C7)ccn5)C4)CC3)CC2)NC(=O)[C@@H]2C[C@@H](O)CN2C(=O)[C@H](C(C)C)N2Cc3ccccc3C2=O)cc1 [Compound 38, (2S,4R)-4-hydroxy-N-[(1S)-1-[4-(4-methyl-1,3-thiazol-5-yl)phenyl]-3-oxo-3-[4-({4-[(1r,3r)-3-[(4-{3-[3-amino-6-(2-hydroxyphenyl)pyridazin-4-yl]-3,8-diazabicyclo[3.2.1]octan-8-yl}pyridin-2-yl)oxy]cyclobutoxy]piperidin-1-yl}methyl)piperidin-1-yl]propyl]-1-[(2S)-3-methyl-2-(1-oxo-2,3-dihydro-1H-isoindol-2-yl)butanoyl]pyrrolidine-2-carboxamide] | < 2.5 nM | > 75%
Cc1ncsc1-c1ccc([C@H](C)NC(=O)[C@@H]2C[C@@H](O)CN2C(=O)[C@@H](c2cc(N3CCC(CN4CC[C@@H](Oc5cc(N6C7CCC6CN(c6cc(-c8ccccc8O)nnc6N)C7)ccn5)[C@H](F)C4)CC3)no2)C(C)C)cc1 [Compound 59, (2S,4R)-1-[(2R)-2-[3-(4-{[(3R,4R)-4-[(4-{3-[3-amino-6-(2-hydroxyphenyl)pyridazin-4-yl]-3,8-diazabicyclo[3.2.1]octan-8-yl}pyridin-2-yl)oxy]-3-fluoropiperidin-1-yl]methyl}piperidin-1-yl)-1,2-oxazol-5-yl]-3-methylbutanoyl]-4-hydroxy-N-[(1S)-1-[4-(4-methyl-1,3-thiazol-5-yl)phenyl]ethyl]pyrrolidine-2-carboxamide] | 10 to 30 nM | > 75%
CC(C)[C@@H](C(=O)N1C[C@H](O)C[C@H]1C(=O)N[C@@H](C)c1ccc(-c2ccnn2C)cc1)c1cc(N2CCC(CN3CCC(CN4CCC5(CC4)CC(Oc4cc(N6C7CCC6CN(c6cc(-c8ccccc8O)nnc6N)C7)ccn4)C5)CC3)CC2)no1 [Compound 39, (2S,4R)-1-[(2R)-2-[3-(4-{[4-({2-[(4-{3-[3-amino-6-(2-hydroxyphenyl)pyridazin-4-yl]-3,8-diazabicyclo[3.2.1]octan-8-yl}pyridin-2-yl)oxy]-7-azaspiro[3.5]nonan-7-yl}methyl)piperidin-1-yl]methyl}piperidin-1-yl)-1,2-oxazol-5-yl]-3-methylbutanoyl]-4-hydroxy-N-[(1S)-1-[4-(1-methyl-1H-pyrazol-5-yl)phenyl]ethyl]pyrrolidine-2-carboxamide] | < 2.5 nM | > 75%
Cc1ncsc1-c1ccc([C@H](C)NC(=O)[C@@H]2C[C@@H](O)CN2C(=O)[C@@H](c2cc(N3CCC(CN4CCCC5(CC(N6CCO[C@H](CN7C8CCC7CN(c7cc(-c9ccccc9O)nnc7N)C8)C6)C5)C4)CC3)no2)C(C)C)cc1 (stereo partly drawn) [Compound 142, (2S,4R)-1-[(2R)-2-{3-[4-({2-[(2S)-2-({3-[3-amino-6-(2-hydroxyphenyl)pyridazin-4-yl]-3,8-diazabicyclo[3.2.1]octan-8-yl}methyl)morpholin-4-yl]-6-azaspiro[3.5]nonan-6-yl}methyl)piperidin-1-yl]-1,2-oxazol-5-yl}-3-methylbutanoyl]-4-hydroxy-N-[(1S)-1-[4-(4-methyl-1,3-thiazol-5-yl)phenyl]ethyl]pyrrolidine-2-carboxamide] | < 2.5 nM | > 75%
Cc1ncsc1-c1ccc([C@H](C)NC(=O)[C@@H]2C[C@@H](O)CN2C(=O)[C@@H](c2cc(N3C4CCC3CC(CN3CCC(O[C@H]5C[C@H](Oc6cc(N7C8CCC7CN(c7cc(-c9ccccc9O)nnc7N)C8)ccn6)C5)CC3)C4)no2)C(C)C)cc1 (stereo partly drawn) [Compound 21, (2S,4R)-4-hydroxy-N-[(1S)-1-[4-(4-methyl-1,3-thiazol-5-yl)phenyl]ethyl]-1-[(2R)-3-methyl-2-{3-[3-({4-[(1r,3r)-3-[(4-{3-[3-amino-6-(2-hydroxyphenyl)pyridazin-4-yl]-3,8-diazabicyclo[3.2.1]octan-8-yl}pyridin-2-yl)oxy]cyclobutoxy]piperidin-1-yl}methyl)-8-azabicyclo[3.2.1]octan-8-yl]-1,2-oxazol-5-yl}butanoyl]pyrrolidine-2-carboxamide] | < 2.5 nM | > 75%
Cc1ncsc1-c1ccc([C@H](C)NC(=O)[C@@H]2C[C@@H](O)CN2C(=O)[C@@H](c2cc(N3CCC(OC4CCN(C[C@H]5C[C@@H](N6CCO[C@@H](CN7C8CCC7CN(c7cc(-c9ccccc9O)nnc7N)C8)C6)C5)CC4)CC3)no2)C(C)C)cc1 [Compound 108, (2S,4R)-1-((2R)-2-(3-(4-((1-(((1S,3s)-3-((2R)-2-((3-(3-amino-6-(2-hydroxyphenyl)pyridazin-4-yl)-3,8-diazabicyclo[3.2.1]octan-8-yl)methyl)morpholino)cyclobutyl)methyl)piperidin-4-yl)oxy)piperidin-1-yl)isoxazol-5-yl)-3-methylbutanoyl)-4-hydroxy-N-((S)-1-(4-(4-methylthiazol-5-yl)phenyl)ethyl)pyrrolidine-2-carboxamide] | < 2.5 nM | > 75%
Cc1ncsc1-c1ccc([C@H](C)NC(=O)[C@@H]2C[C@@H](O)CN2C(=O)[C@H](c2cc(N3CCC(OC(=O)N4CCC(Oc5cc(N6C7CCC6CN(c6cc(-c8ccccc8O)nnc6N)C7)ccn5)CC4)CC3)no2)C(C)C)cc1 [Compound 131, 1-(5-((S)-1-((2S,4R)-4-hydroxy-2-(((S)-1-(4-(4-methylthiazol-5-yl)phenyl)ethyl)carbamoyl)pyrrolidin-1-yl)-3-methyl-1-oxobutan-2-yl)isoxazol-3-yl)piperidin-4-yl 4-((4-(3-(3-amino-6-(2-hydroxyphenyl)pyridazin-4-yl)-3,8-diazabicyclo[3.2.1]octan-8-yl)pyridin-2-yl)oxy)piperidine-1-carboxylate] | ≥ 30 nM | –
CC(C)[C@H](C(=O)N1C[C@H](O)C[C@H]1C(=O)N[C@@H](C)c1ccc(-c2ccnn2C)cc1)c1cc(N2CCC(OC3CCN(CC4CC(N5CCC([C@@H](C)n6cc(C#Cc7cc(-c8ccccc8O)nnc7N)cn6)CC5)C4)CC3)CC2)no1 (stereo partly drawn) [Compound 109, (2S,4R)-1-[(2S)-2-{3-[4-({1-[(3-{4-[(1R)-1-(4-{2-[3-amino-6-(2-hydroxyphenyl)pyridazin-4-yl]ethynyl}-1H-pyrazol-1-yl)ethyl]piperidin-1-yl}cyclobutyl)methyl]piperidin-4-yl}oxy)piperidin-1-yl]-1,2-oxazol-5-yl}-3-methylbutanoyl]-4-hydroxy-N-[(1S)-1-[4-(1-methyl-1H-pyrazol-5-yl)phenyl]ethyl]pyrrolidine-2-carboxamide] | ≥ 30 nM | –
CC(C)[C@@H](C(=O)N1C[C@H](O)C[C@H]1C(=O)N[C@@H](C)c1ccc(C#N)cc1)c1cc(N2CCC(CN3CC[C@H](Oc4cc(N5C6CCC5CN(c5cc(-c7ccccc7O)nnc5N)C6)ccn4)C(F)(F)C3)CC2)no1 [Compound 146, (2S,4R)-1-[(2R)-2-[3-(4-{[(4S)-4-[(4-{3-[3-amino-6-(2-hydroxyphenyl)pyridazin-4-yl]-3,8-diazabicyclo[3.2.1]octan-8-yl}pyridin-2-yl)oxy]-3,3-difluoropiperidin-1-yl]methyl}piperidin-1-yl)-1,2-oxazol-5-yl]-3-methylbutanoyl]-N-[(1S)-1-(4-cyanophenyl)ethyl]-4-hydroxypyrrolidine-2-carboxamide] | 10 to 30 nM | > 75%
